The numbers were not newly measured in patent US11818994B2, “Brachiaria endophytes and related methods” (Agriculture Victoria Services PTY LTD, priority 2015, dated 2023), which cites them from elsewhere.

The data set has as its system Nitrosomonas spp. The note with it: Subbarao et al. 2009.

Consider brachialactone, for which the “biocidal activity against Nitrosomonas spp” value is “biocidal activity”.
